The text below walks through data of PubChem BioAssay (NCI).

Each structure is given as a SMILES string. Values joined by “and” are separate entries in the source; they are usually repeats but may differ in a detail not shown here. Equal entries are not always repeated.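 Briefly, cells in 96-well plates were exposed to five compound concentrations for 48 h, and endpoints were estimated by linear interpolation. The concentration for 50% growth inhibition is given as GI50. Definition used: TGI = concentration required for complete inhibition of growth.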

Test systems include DU-145 prostate; HCC-2998 colon; HL-60(TB) leukemia; MOLT-4 leukemia; OVCAR-3 ovarian; SNB-75 CNS; SR leukemia.
Holding throughout (test): growth of human tumour cells (NCI), 48 h

As for `Nc1nc(=O)n(C2CC(O)C(CO)O2)cc1F` (stereo not drawn), the TGI in the experiment on DU-145 prostate is more than 100 µM; with HCC-2998 colon it was more than 26.4 µM; in the experiment on HL-60(TB) leukemia, more than 100 µM; with OVCAR-3 ovarian, more than 100 µM; in the experiment on SNB-75 CNS, more than 100 µM; with SR leukemia it was more than 100 µM. Further, the GI50 in the experiment on HCC-2998 colon is 0.000943 µM; in the experiment on HL-60(TB) leukemia it was more than 80.8 µM; with MOLT-4 leukemia, 0.00502 µM; with SR leukemia, more than 100 µM.

Take `NC(N)=NN=c1c(=O)c2ccccc2c1=O`: the GI50 in the experiment with DU-145 prostate was 1.9 µM; in the experiment on HCC-2998 colon, 14.2 µM; in the experiment with HL-60(TB) leukemia, 21.5 µM; in the experiment on MOLT-4 leukemia, 1.46 µM; with OVCAR-3 ovarian it was 13 µM; in the experiment on SNB-75 CNS, 11.4 µM. For the same compound, the GI50 in the experiment with SR leukemia was 2.4 µM. For the same compound, the TGI was 3.39 µM in the experiment on DU-145 prostate; 28 µM in the experiment with HCC-2998 colon; 48.6 µM in the experiment with HL-60(TB) leukemia; 3.82 µM in the experiment with MOLT-4 leukemia; 26.4 µM in the experiment on OVCAR-3 ovarian; 23.7 µM with SNB-75 CNS. In the experiment on SR leukemia, the TGI stood at 5.92 µM.

Turning to `COC(=O)c1cc(-c2ccc3ccccc3c2)[nH]c(=O)c1C#N`, the TGI in the experiment with DU-145 prostate is more than 100 µM; in the experiment on HCC-2998 colon, more than 100 µM; with HL-60(TB) leukemia it was 38.7 µM; in the experiment on OVCAR-3 ovarian, more than 100 µM; in the experiment on SNB-75 CNS it was more than 100 µM; in the experiment with SR leukemia it was more than 100 µM.

With `Cc1ccc2c(c1)[n+](=O)c(C(=O)c1cccs1)c(C(F)(F)F)n2[O-]`, the GI50 with DU-145 prostate was 0.913 µM and 0.573 µM; in the experiment on HCC-2998 colon, 0.638 µM and 0.238 µM; in the experiment with HL-60(TB) leukemia it was 1.5 µM and 0.713 µM; in the experiment with MOLT-4 leukemia, 4.12 µM; in the experiment on OVCAR-3 ovarian, 0.923 µM and 0.163 µM; in the experiment on SNB-75 CNS, 2.86 µM. Moreover, the GI50 with SR leukemia was 0.152 µM. Also, the TGI is 2.08 µM and 2.42 µM in the experiment on DU-145 prostate; 2.1 µM and 0.559 µM with HCC-2998 colon; 33.7 µM and 57.3 µM in the experiment with HL-60(TB) leukemia; 50 µM with MOLT-4 leukemia; 2.6 µM and 0.979 µM with OVCAR-3 ovarian; 17.3 µM with SNB-75 CNS. Moreover, in the experiment with SR leukemia, the TGI was determined as 50 µM.

Turning to `C[C@@H](Nc1nc(N[C@H](C)C(F)(F)F)nc(-c2cccc(Cl)n2)n1)C(F)(F)F`, the GI50 with DU-145 prostate is 41.6 µM; with HCC-2998 colon, 66.3 µM; in the experiment on HL-60(TB) leukemia it was more than 100 µM; in the experiment with MOLT-4 leukemia, more than 100 µM; in the experiment on OVCAR-3 ovarian, 31.5 µM; in the experiment with SNB-75 CNS, 15.8 µM. In addition, in the experiment on SR leukemia, the GI50 was more than 100 µM. Further, the TGI is more than 100 µM in the experiment on DU-145 prostate; more than 100 µM in the experiment with HCC-2998 colon; more than 100 µM with HL-60(TB) leukemia; more than 100 µM with MOLT-4 leukemia; more than 100 µM with OVCAR-3 ovarian; 44.3 µM with SNB-75 CNS. This compound also had a TGI in the experiment on SR leukemia of more than 100 µM.

As for `CC(=O)N[C@H](C)[C@@H](O)[C@@H](C)[C@@H]1OC(=O)/C=C/C=C(C)\C=C\[C@]2(C)C[C@@H](NS(C)(=O)=O)C=C[C@@H]2/C=C(C)/C=C/[C@H]1C`, the TGI with DU-145 prostate, with HCC-2998 colon, in the experiment on HL-60(TB) leukemia, with MOLT-4 leukemia, in the experiment with OVCAR-3 ovarian and in the experiment on SR leukemia was more than 43.5 µM throughout. For the same compound, the GI50 with HL-60(TB) leukemia was 0.00579 µM and 0.0124 µM; in the experiment on MOLT-4 leukemia, more than 43.5 µM; in the experiment with SNB-75 CNS, 0.00177 µM and 0.00888 µM; in the experiment on SR leukemia, 0.00606 µM and 0.00719 µM.

Turning to `CC1(C)OB(c2ccc(N(CCOS(C)(=O)=O)CCOS(C)(=O)=O)cc2)OC1(C)C`, the GI50 in the experiment with DU-145 prostate is 23.3 µM; in the experiment with HCC-2998 colon, 15.7 µM; with HL-60(TB) leukemia, 2.85 µM; with MOLT-4 leukemia, 1.68 µM; with OVCAR-3 ovarian, 18.9 µM; with SNB-75 CNS, 22.1 µM. Besides, the GI50 in the experiment on SR leukemia was 0.0234 µM. In addition, the TGI in the experiment on DU-145 prostate was 55.7 µM; in the experiment with HCC-2998 colon, 49 µM; in the experiment with HL-60(TB) leukemia, 39.3 µM; with MOLT-4 leukemia it was more than 72.7 µM; in the experiment with OVCAR-3 ovarian, 45.3 µM; in the experiment on SNB-75 CNS, 49.3 µM. For the same compound, the TGI with SR leukemia was 1.02 µM.

Turning to `Cc1cccc2c(C3=C(c4cn(C)c5ccccc45)C(=O)NC3=O)cn(C)c12`, the GI50 in the experiment with DU-145 prostate is more than 25 µM; in the experiment with HCC-2998 colon, more than 25 µM; in the experiment on HL-60(TB) leukemia, more than 25 µM; in the experiment on MOLT-4 leukemia, more than 25 µM; in the experiment on OVCAR-3 ovarian, 9.33 µM; in the experiment with SNB-75 CNS it was 1.15 µM. Further, the GI50 in the experiment on SR leukemia was 4.88 µM. Further, the TGI in the experiment on DU-145 prostate, with HCC-2998 colon, in the experiment on HL-60(TB) leukemia, in the experiment on MOLT-4 leukemia, in the experiment on OVCAR-3 ovarian and with SNB-75 CNS was more than 25 µM throughout. For the same compound, in the experiment with SR leukemia, the TGI was more than 25 µM.

Turning to `CN(C)c1ccc(C(=S)c2ccc(N(C)C)cc2)cc1`, the GI50 was 20.3 µM with DU-145 prostate; 9.66 µM in the experiment on HCC-2998 colon; 4.17 µM with HL-60(TB) leukemia; 6.35 µM in the experiment with MOLT-4 leukemia; 3.93 µM in the experiment with OVCAR-3 ovarian; 5.28 µM in the experiment on SNB-75 CNS. The GI50 in the experiment on SR leukemia is 3.75 µM. The TGI in the experiment with DU-145 prostate is more than 100 µM; with HCC-2998 colon, more than 100 µM; in the experiment on HL-60(TB) leukemia, more than 100 µM; in the experiment on MOLT-4 leukemia, more than 100 µM; with OVCAR-3 ovarian, more than 100 µM; in the experiment with SNB-75 CNS, 40.2 µM. In addition, in the experiment with SR leukemia, the TGI turned out to be 92.6 µM.

Turning to `C[C@@H]1CC[C@H]2[C@@H](C)C(O)O[C@@H]3O[C@]4(C)CC[C@@H]1[C@]32OO4` (stereo partly drawn), the GI50 with DU-145 prostate is 5.27 µM; with HCC-2998 colon, 2.6 µM; in the experiment on HL-60(TB) leukemia, 0.176 µM; with MOLT-4 leukemia it was 0.34 µM; with OVCAR-3 ovarian it was 0.431 µM; in the experiment on SNB-75 CNS, 2.54 µM. The GI50 with SR leukemia is 0.199 µM. In addition, the TGI with DU-145 prostate is 17.4 µM; in the experiment on HCC-2998 colon it was more than 63.2 µM; in the experiment on HL-60(TB) leukemia, 0.517 µM; in the experiment with MOLT-4 leukemia, 10.5 µM; with OVCAR-3 ovarian it was 15.6 µM; in the experiment with SNB-75 CNS it was 15.6 µM. The TGI in the experiment with SR leukemia was found to be 0.898 µM.

In the case of `COc1ccc(-c2nn(-c3cccc(Cl)c3)cc2/C=C2\NC(=S)N(c3ccc(Cl)cc3)C2=O)cc1`, the GI50 in the experiment with DU-145 prostate was 8.75 µM; with HCC-2998 colon, 7.93 µM; in the experiment with HL-60(TB) leukemia, 8.61 µM; in the experiment on MOLT-4 leukemia, 4.47 µM; with OVCAR-3 ovarian, 5.54 µM; in the experiment with SNB-75 CNS, 0.95 µM. Also, in the experiment with SR leukemia, the GI50 was 3.59 µM. The TGI with DU-145 prostate is more than 25 µM; in the experiment on HCC-2998 colon it was more than 25 µM; with HL-60(TB) leukemia it was more than 25 µM; with MOLT-4 leukemia it was 10.7 µM; with OVCAR-3 ovarian, 12.9 µM; with SNB-75 CNS, 4.47 µM. The same compound showed a TGI in the experiment with SR leukemia of 7.29 µM.
